Measured values as given in patent US4209443A, “Process for separating pharmaceutically active diindole alkaloids” (priority 1976, dated 1980).
Structures can show the parent of a compound that is named as a salt.

Key:
[1] = system: Novikoff hepatoma; test: Average survival prolongation and tumor-inhibiting effect, Novikoff hepatoma, i.p.; assay type: in vivo, rat (Wistar rats); conditions: for On the limit-day (days 36 to day 40): lives / On the limit-day (days 36 to day 40): tumor-free / T/c × 100 / Average survival period, treated: once a day, 8 treatments
Description: (§1) The pharmacological tests were performed on transplantable tumors of rats and mice. The effects on L 1210/VS(vinca-sensitive) mouse lymphoid leukemia and L 1210/Ref (vinca-refractory) mouse lymphoid leukemia were tested on BDF1 mice, the effects on Ehrlich ascites carcinomatous tumors and S 37 ascites sarcomatous tumors were examined on Swiss mice, whereas the effects on Novikoff hepatoma were examined on Wistar rats.
(§2) The 4-deacetoxy-vinblastine sulfate was dissolved in physiological saline and the solution was administered intraperitoneally into the animals to be tested. In the tests the average prolongation of survival period and the tumor-inhibiting effect were examined in relation to the untreated controls. In the Table the symbol T/c represents the ratio of treated animals to the controls, and the term "number of limit-days" means the fourfold of the average survival period observed in the control group.

[2] = system: transplantable tumors of rats and mice; test: Tumor-inhibiting effect on transplantable tumors of rats and mice; assay type: in vivo
Description: as §1, §2

[3] = Toxicity (LD50, i.p., mice); conditions: mouse, in vivo, ip
[4] = system: L 1210/Ref (vinca-refractory) mouse lymphoid leukemia; test: Average survival prolongation and tumor-inhibiting effect, L 1210/Ref (vinca-refractory) lymphoid leukemia, i.p.; assay type: in vivo, mouse (BDF1 mice); conditions: for On the limit-day (days 36 to day 40): lives / On the limit-day (days 36 to day 40): tumor-free / T/c × 100 / Average survival period, treated: 7 treatments; for Average survival period, treated: control 8.0 days
Description: as §1, §2

[5] = system: Ehrlich ascites carcinoma; test: Average survival prolongation and tumor-inhibiting effect, Ehrlich ascites carcinoma, i.p.; assay type: in vivo, mouse (Swiss mice); conditions: 3.0 mg/kg i.p., once a day, 9 treatments
Description: as §1, §2

[6] = system: HK/Ly ascites lymphoma; test: Average survival prolongation and tumor-inhibiting effect, HK/Ly ascites lymphoma, i.p.; assay type: in vivo; conditions: once a day, 8 treatments; for Average survival period, treated: control 14.4 days
Description: as §2

[7] = Neurotoxicity accompanied with paralytic symptoms; assay type: in vivo; conditions: during administration
[8] = system: S 37 ascites sarcoma; test: Average survival prolongation and tumor-inhibiting effect, S 37 ascites sarcoma, i.p.; assay type: in vivo, mouse (Swiss mice); conditions: once a day, 8 treatments; for Average survival period, treated: control 18.2 days
Description: as §1, §2

[9] = system: mice; test: Toxicity (LD50, i.p., mice)
[10] = system: L 1210/VS (vinca-sensitive) mouse lymphoid leukemia; test: Average survival prolongation and tumor-inhibiting effect, L 1210/VS (vinca-sensitive) lymphoid leukemia, i.p.; assay type: in vivo, mouse (BDF1 mice)
Description: as §1, §2

[11] = system: tumors resistant towards the cytostatic agents known before; conditions: Hungarian Patent specification No. 165,986; cited from earlier work
[12] = known vinca alkaloids; cited from earlier work
[13] = in vivo; conditions: mouse, ip
[14] = 4.0 mg/kg i.p., once in every two days
[15] = 0.9 mg/kg i.p., once a day, 7 treatments
[16] = 1.8 mg/kg i.p., once a day, 7 treatments
[17] = 2.0 mg/kg i.p., once a day, 16 treatments
[18] = 4.0 mg/kg i.p., once a day, 16 treatments
[19] = 4.0 mg/kg i.p., once in every two days, 8 treatments
[20] = 4.0 mg/kg i.p., once in every two days, 11 treatments
[21] = 5.0 mg/kg i.p., once in every two days, 8 treatments
[22] = 6.0 mg/kg i.p., once in every two days, 8 treatments

CC[C@]1(O)C[C@@H]2CN(CCc3c([nH]c4ccccc34)[C@@](C(=O)OC)(c3cc4c(cc3OC)N(C)[C@@H]3[C@]45CCN4CC=C[C@@](CC)(C[C@]3(O)C(=O)OC)[C@H]45)C2)C1 [4-Deacetoxy-vinblastine, 4-deacetoxy-vinblastine]
inhibiting effect on Novikoff hepatoma ([1]; relative to the other transplanted tumors): most intensive
inhibiting effect on all the other transplanted tumors ([2]; all transplanted tumors other than L 1210/Ref): significant dosage-dependent inhibiting effect
LD50 [3]: > 23 mg/kg
sensitivity of L 1210/Ref leukemia ([4]; mouse, in vivo): not sensitive

CC[C@]1(O)C[C@@H]2CN(CCc3c([nH]c4ccccc34)[C@@](C(=O)OC)(c3cc4c(cc3OC)N(C)[C@@H]3[C@]45CCN4CC=C[C@@](CC)(C[C@]3(O)C(=O)OC)[C@H]45)C2)C1 [4-deacetoxy-vinblastine sulfate, 4-Deacetoxy-vinblastine sulfate]
On the limit-day (days 36 to day 40): lives [5]: 10/10
On the limit-day (days 36 to day 40): tumor-free [5]: 6/10
T/c × 100 [5]: 174
Average survival period, treated ([5]; control 17.4 days): 30 days
On the limit-day (days 36 to day 40): lives ([6]; 2.0 mg/kg i.p.): 0/10
On the limit-day (days 36 to day 40): tumor-free ([6]; 2.0 mg/kg i.p.): 0/10
T/c × 100 ([6]; 2.0 mg/kg i.p.): 334
Average survival period, treated ([6]; 2.0 mg/kg i.p.): 48.1 days
On the limit-day (days 36 to day 40): lives ([6]; 4.0 mg/kg i.p.): 6/10
On the limit-day (days 36 to day 40): tumor-free ([6]; 4.0 mg/kg i.p.): 0/10
T/c × 100 ([6]; 4.0 mg/kg i.p.): 382
Average survival period, treated ([6]; 4.0 mg/kg i.p.): 55.0 days
On the limit-day (days 36 to day 40): lives ([6]; 6.0 mg/kg i.p.): 0/10
On the limit-day (days 36 to day 40): tumor-free ([6]; 6.0 mg/kg i.p.): 0/10
T/c × 100 ([6]; 6.0 mg/kg i.p.): 328
Average survival period, treated ([6]; 6.0 mg/kg i.p.): 47.2 days
On the limit-day (days 36 to day 40): lives ([1]; 0.5 mg/kg i.p.): 0/6
On the limit-day (days 36 to day 40): tumor-free ([1]; 0.5 mg/kg i.p.): 0/6
T/c × 100 ([1]; 0.5 mg/kg i.p.): 126
Average survival period, treated ([1]; 0.5 mg/kg i.p., control 8.2 days): 10.3 days
On the limit-day (days 36 to day 40): lives ([1]; 1.0 mg/kg i.p.): 1/6
On the limit-day (days 36 to day 40): tumor-free ([1]; 1.0 mg/kg i.p.): 1/6
T/c × 100 ([1]; 1.0 mg/kg i.p.): 338
Average survival period, treated ([1]; 1.0 mg/kg i.p., control 8.2 days): 27.7 days
On the limit-day (days 36 to day 40): lives ([1]; 1.5 mg/kg i.p.): 2/6
On the limit-day (days 36 to day 40): tumor-free ([1]; 1.5 mg/kg i.p.): 0/6
T/c × 100 ([1]; 1.5 mg/kg i.p.): 317
Average survival period, treated ([1]; 1.5 mg/kg i.p., control 7.8 days): 24.7 days
tumor-inhibiting effects compared with vinblastine ([2]; compared with vinblastine): roughly identical with those of vinblastine
Neurotoxicity accompanied with paralytic symptoms [7]: does not appear at all
On the limit-day (days 36 to day 40): lives ([8]; 1.8 mg/kg i.p.): 6/8
On the limit-day (days 36 to day 40): tumor-free ([8]; 1.8 mg/kg i.p.): 6/8
T/c × 100 ([8]; 1.8 mg/kg i.p.): 376
Average survival period, treated ([8]; 1.8 mg/kg i.p.): 68.5 days
On the limit-day (days 36 to day 40): lives ([8]; 2.7 mg/kg i.p.): 7/10
On the limit-day (days 36 to day 40): tumor-free ([8]; 2.7 mg/kg i.p.): 7/10
T/c × 100 ([8]; 2.7 mg/kg i.p.): 373
Average survival period, treated ([8]; 2.7 mg/kg i.p.): 67.9 days
toxicity compared with vinblastine ([9]; compared with vinblastine): far less toxic than vinblastine
On the limit-day (days 36 to day 40): lives ([4]; 2.0 mg/kg i.p., once a day): 0/6
On the limit-day (days 36 to day 40): tumor-free ([4]; 2.0 mg/kg i.p., once a day): 0/6
T/c × 100 ([4]; 2.0 mg/kg i.p., once a day): 119
Average survival period, treated ([4]; 2.0 mg/kg i.p., once a day): 9.5 days
On the limit-day (days 36 to day 40): lives ([4]; 4.0 mg/kg i.p., once a day): 0/6
On the limit-day (days 36 to day 40): tumor-free ([4]; 4.0 mg/kg i.p., once a day): 0/6
T/c × 100 ([4]; 4.0 mg/kg i.p., once a day): 144
Average survival period, treated ([4]; 4.0 mg/kg i.p., once a day): 11.5 days
On the limit-day (days 36 to day 40): lives [4, 14]: 0/6
On the limit-day (days 36 to day 40): tumor-free [4, 14]: 0/6
T/c × 100 [4, 14]: 146
Average survival period, treated [4, 14]: 11.7 days
On the limit-day (days 36 to day 40): lives [10, 15]: 0/6
On the limit-day (days 36 to day 40): tumor-free [10, 15]: 0/6
T/c × 100 [10, 15]: 128
Average survival period, treated ([10]; 0.9 mg/kg i.p., once a day, 7 treatments, control 8.8 days): 11.5 days
On the limit-day (days 36 to day 40): lives [10, 16]: 0/6
On the limit-day (days 36 to day 40): tumor-free [10, 16]: 0/6
T/c × 100 [10, 16]: 128
Average survival period, treated ([10]; 1.8 mg/kg i.p., once a day, 7 treatments, control 8.8 days): 11.3 days
On the limit-day (days 36 to day 40): lives [10, 17]: 0/6
On the limit-day (days 36 to day 40): tumor-free [10, 17]: 0/6
T/c × 100 [10, 17]: 238
Average survival period, treated ([10]; 2.0 mg/kg i.p., once a day, 16 treatments, control 10.3 days): 24.5 days
On the limit-day (days 36 to day 40): lives [10, 18]: 0/6
On the limit-day (days 36 to day 40): tumor-free [10, 18]: 0/6
T/c × 100 [10, 18]: 269
Average survival period, treated ([10]; 4.0 mg/kg i.p., once a day, 16 treatments, control 10.3 days): 27.7 days
On the limit-day (days 36 to day 40): lives [10, 19]: 0/6
On the limit-day (days 36 to day 40): tumor-free [10, 19]: 0/6
T/c × 100 [10, 19]: 213
Average survival period, treated ([10]; 4.0 mg/kg i.p., once in every two days, 8 treatments, control 8.3 days): 17.7 days
On the limit-day (days 36 to day 40): lives [10, 20]: 0/6
On the limit-day (days 36 to day 40): tumor-free [10, 20]: 0/6
T/c × 100 [10, 20]: 267
Average survival period, treated ([10]; 4.0 mg/kg i.p., once in every two days, 11 treatments, control 10.3 days): 27.5 days
On the limit-day (days 36 to day 40): lives [10, 21]: 0/6
On the limit-day (days 36 to day 40): tumor-free [10, 21]: 0/6
T/c × 100 [10, 21]: 251
Average survival period, treated ([10]; 5.0 mg/kg i.p., once in every two days, 8 treatments, control 8.3 days): 20.8 days
On the limit-day (days 36 to day 40): lives [10, 22]: 0/6
On the limit-day (days 36 to day 40): tumor-free [10, 22]: 0/6
T/c × 100 [10, 22]: 291
Average survival period, treated ([10]; 6.0 mg/kg i.p., once in every two days, 8 treatments, control 8.3 days): 24.2 days

CC[C@]12CN3CCc4c([nH]c5ccccc45)[C@@](C(=O)OC)(c4cc5c(cc4OC)N(C=O)[C@H]4[C@@](O)(C(=O)OC)[C@H](OC(C)=O)[C@]6(CC)C=CCN7CC[C@]54[C@@H]76)C[C@@H](C3)[C@H]1O2 [N-Formyl-leurosine, reference compound]
growth inhibition of tumors resistant towards the cytostatic agents known before [11]: inhibits the growth of tumors resistant towards the cytostatic agents known before
LD50 ([9]; i.p., mice): 29.0 mg/kg

CC[C@]1(O)C[C@@H]2CN(CCc3c([nH]c4ccccc34)[C@@](C(=O)OC)(c3cc4c(cc3OC)N(C)[C@H]3[C@@](O)(C(=O)OC)[C@H](OC(C)=O)[C@]5(CC)C=CCN6CC[C@]43[C@@H]65)C2)C1 [Vinblastine, vinblastine]
Neurotoxicity accompanied with paralytic symptoms (known side-effect) [12]: characteristic adverse side-effect
LD50 [13]: 7.5 mg/kg

CC[C@]1(O)C[C@H]2CN(CCc3c([nH]c4ccccc34)[C@@](C(=O)OC)(c3cc4c(cc3OC)N(C=O)[C@H]3[C@@](O)(C(=O)OC)[C@H](OC(C)=O)[C@]5(CC)C=CCN6CC[C@]43[C@@H]65)C2)C1 [Vincristine, vincristine, reference compound]
Neurotoxicity accompanied with paralytic symptoms (known side-effect) [12]: characteristic adverse side-effect
LD50 [3]: 4.2 mg/kg
